The numbers were not newly measured in patent US20220087839A1, “Arterial Drug Eluting Device to Treat Diabetes With Targeted Delivery of Medication” (Becton, Dickinson and Company, priority 2020, published 2022), which cites them from elsewhere.

Data set [1] concerns glucagon. The following applies: intravenous infusion of 25 micrograms per hour, Type 1 diabetic.
The subject of data set [2] is human alpha-cells. The settings on record: in vitro.
Data set [3] deals with glucagon. The settings on record: intravenous infusion of 500 micrograms per hour, Type 1 diabetics.
The conditions of data set [4]: in vivo.
In data set [5] the test system is beta and alpha cells of the pancreas.

With `CC[C@H](C)[C@H](NC(=O)[C@@H]1CCCN1C(=O)CNC(=O)[C@H](Cc1ccccc1)NC(=O)[C@H](CC(N)=O)NC(=O)[C@H](CC(N)=O)NC(=O)[C@H](CO)NC(=O)[C@H](CO)NC(=O)[C@H](Cc1c[nH]cn1)NC(=O)[C@@H](NC(=O)[C@H](CC(C)C)NC(=O)[C@H](Cc1ccccc1)NC(=O)[C@H](CC(N)=O)NC(=O)[C@H](C)NC(=O)[C@H](CC(C)C)NC(=O)[C@H](CCCNC(=N)N)NC(=O)[C@H](CCC(N)=O)NC(=O)[C@@H](NC(=O)[C@H](C)NC(=O)[C@@H]1CSSC[C@H](NC(=O)[C@@H](N)CCCCN)C(=O)N[C@@H](CC(N)=O)C(=O)N[C@@H]([C@@H](C)O)C(=O)N[C@@H](C)C(=O)N[C@@H]([C@@H](C)O)C(=O)N1)[C@@H](C)O)C(C)C)C(=O)N[C@@H](CC(C)C)C(=O)N1CCC[C@H]1C(=O)N1CCC[C@H]1C(=O)N[C@H](C(=O)N[C@@H](CC(N)=O)C(=O)N[C@H](C(=O)NCC(=O)N[C@@H](CO)C(=O)N[C@@H](CC(N)=O)C(=O)N[C@H](C(=O)N[C@@H](Cc1ccc(O)cc1)C(N)=O)[C@@H](C)O)C(C)C)[C@@H](C)O` [Pramlintide], the “suppression of glucagon spike from a standardized meal” value in data set [1] was “could suppress a glucagon spike from a standardized meal”. As to leptin, the “concentration that could suppress functional response to glucose” value in data set [2] was 0.625 nmol/L. With somatostatin, the “suppression of glucagon spikes” value in data set [3] is “suppressed glucagon spikes”. Also, the half life in data set [4] is 3 min. Besides, the “effect on insulin and glucagon release” value in data set [5] was “inhibit both insulin and glucagon release”.
